Patent US12344595B2, “2-amino-n-phenyl-nicotinamides as NAV1.8 inhibitors” (Merck Sharp & Dohme LLC, priority 2018, dated 2025)

Target: human Nav1.8 (Homo sapiens (Human), UniProt Q9Y5Y9)
Assay: Nav1.8 Qube automated patch-clamp assay
Format: cell-based
Details: Nav1.8 Qube Assay; human Nav1.8 channels stably expressed in HEK 293 cells
Method in brief: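 Whole-cell automated patch clamp was run at room temperature on HEK293 cells stably expressing the channel. A 1 Hz, 10 s train of 20 ms pulses to 10 mV from −90 mV (repolarizing to −67 mV) was applied. Peak currents at the 1st and 10th pulses gave resting and inactivated-state IC50 values by Hill fit.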

Chain of human Nav1.8 (Q9Y5Y9 whole entry): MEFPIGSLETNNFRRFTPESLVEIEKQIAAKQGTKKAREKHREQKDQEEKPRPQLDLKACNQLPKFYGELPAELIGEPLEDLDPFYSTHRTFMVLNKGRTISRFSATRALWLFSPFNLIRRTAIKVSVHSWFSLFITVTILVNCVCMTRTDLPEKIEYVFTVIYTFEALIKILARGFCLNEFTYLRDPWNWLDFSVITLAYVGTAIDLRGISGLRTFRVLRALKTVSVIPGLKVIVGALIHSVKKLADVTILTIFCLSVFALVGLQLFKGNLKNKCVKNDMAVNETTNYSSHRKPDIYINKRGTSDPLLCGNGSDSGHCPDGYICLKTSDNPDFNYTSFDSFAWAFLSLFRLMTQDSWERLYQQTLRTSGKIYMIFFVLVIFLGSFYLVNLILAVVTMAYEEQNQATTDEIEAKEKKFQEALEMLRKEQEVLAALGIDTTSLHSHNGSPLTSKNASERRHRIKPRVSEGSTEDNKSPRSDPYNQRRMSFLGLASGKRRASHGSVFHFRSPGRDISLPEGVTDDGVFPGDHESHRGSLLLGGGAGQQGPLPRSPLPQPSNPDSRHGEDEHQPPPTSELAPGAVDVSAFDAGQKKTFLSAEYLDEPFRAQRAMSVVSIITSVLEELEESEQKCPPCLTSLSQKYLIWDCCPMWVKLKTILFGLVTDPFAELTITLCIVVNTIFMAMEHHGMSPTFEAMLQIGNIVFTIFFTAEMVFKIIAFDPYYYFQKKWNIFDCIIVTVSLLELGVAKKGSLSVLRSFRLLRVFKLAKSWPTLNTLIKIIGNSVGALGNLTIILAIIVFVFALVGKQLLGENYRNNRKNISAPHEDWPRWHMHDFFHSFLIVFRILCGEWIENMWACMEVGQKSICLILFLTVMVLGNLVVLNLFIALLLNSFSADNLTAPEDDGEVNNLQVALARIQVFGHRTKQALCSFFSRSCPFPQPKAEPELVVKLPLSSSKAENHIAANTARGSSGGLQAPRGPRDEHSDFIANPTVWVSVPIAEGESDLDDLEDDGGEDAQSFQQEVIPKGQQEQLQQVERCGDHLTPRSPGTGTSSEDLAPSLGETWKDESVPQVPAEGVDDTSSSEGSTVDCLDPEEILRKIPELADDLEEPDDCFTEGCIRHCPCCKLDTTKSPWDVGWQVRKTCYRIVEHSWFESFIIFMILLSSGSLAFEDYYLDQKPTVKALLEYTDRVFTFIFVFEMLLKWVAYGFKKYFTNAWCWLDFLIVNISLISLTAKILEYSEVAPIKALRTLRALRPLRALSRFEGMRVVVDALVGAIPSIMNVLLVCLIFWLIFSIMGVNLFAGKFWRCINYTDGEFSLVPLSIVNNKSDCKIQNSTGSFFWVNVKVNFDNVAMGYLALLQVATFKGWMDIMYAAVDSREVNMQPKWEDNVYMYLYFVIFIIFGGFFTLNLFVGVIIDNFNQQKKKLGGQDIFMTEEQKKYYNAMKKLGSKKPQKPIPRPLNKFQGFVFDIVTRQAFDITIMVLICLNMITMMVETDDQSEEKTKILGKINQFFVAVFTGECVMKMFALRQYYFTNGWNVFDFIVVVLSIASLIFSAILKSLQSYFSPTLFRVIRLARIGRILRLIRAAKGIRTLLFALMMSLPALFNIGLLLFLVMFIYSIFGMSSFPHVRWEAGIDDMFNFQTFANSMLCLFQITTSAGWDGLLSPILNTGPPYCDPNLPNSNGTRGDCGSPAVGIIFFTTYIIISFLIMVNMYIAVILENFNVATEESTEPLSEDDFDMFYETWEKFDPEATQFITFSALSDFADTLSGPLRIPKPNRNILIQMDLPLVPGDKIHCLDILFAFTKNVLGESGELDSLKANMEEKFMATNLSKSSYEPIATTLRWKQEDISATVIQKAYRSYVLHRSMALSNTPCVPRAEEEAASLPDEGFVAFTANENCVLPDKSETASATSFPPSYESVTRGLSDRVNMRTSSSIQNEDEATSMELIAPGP

Compared with `CC1CN(c2ncc(C(F)(F)F)cc2C(=O)Nc2cccc(S(N)(=O)=O)c2)CC(C)O1` (single isomer, unassigned) [Example 149, 2-[(2R,6S or 2S,6R)-2,6-dimethylmorpholin-4-yl]-N-(3-sulfamoylphenyl)-5-(trifluoromethyl) pyridine-3-carboxamide], `NS(=O)(=O)c1cccc(NC(=O)c2cc(C(F)(F)F)cnc2N2CC3CCC(C2)O3)c1` [Example 57, 2-(8-oxa-3-azabicyclo[3.2.1]octan-3-yl)-N-(3-sulfamoyl-phenyl)-5-(trifluoro-methyl)pyridine-3-carboxamide] is 1.6-fold higher in IC50: 351 nM for the first, 575 nM for the second. The first is the more potent here.

First: NS(=O)(=O)c1cccc(NC(=O)c2cc(C(F)(F)F)cnc2N2C[C@H]3C[C@@H](C2)C3(F)F)c1 [Example 132, 2-[(1R,5S)-6,6-difluoro-3-azabicyclo[3.1.1]-heptan-3-yl]-N-(3-sulfamoylphenyl)-5-(trifluoromethyl)-pyridine-3-carboxamide]
Second: NS(=O)(=O)c1cccc(NC(=O)c2cc(C(F)(F)F)cnc2N2CC3CC(F)(F)C3C2)c1 (single isomer, unassigned) [Example 135, 2-[(1S,5R or 1R,5S)-6,6-difluoro-3-azabicyclo[3.2.0]heptan-3-yl]-N-(3-sulfamoyl-phenyl)-5-(trifluoro-methyl)pyridine-3-carboxamide]
The IC50 of the first is 4.6-fold higher: 170 nM for the first, 37 nM for the second. The second is the more potent here.

Going from `CS(=O)(=O)c1cccc(NC(=O)c2cc(C(F)(F)F)cnc2N2CCC3OCCC32)c1` (stereo not drawn) [Example 104, 2-(2,3,3a,5,6,6a-hexahydrofuro[3,2-b]pyrrol-4-yl)-N-(3-methylsulfonylphenyl)-5-(trifluoromethyl) pyridine-3-carboxamide] to `CS(=O)(=O)c1cccc(NC(=O)c2cc(C(F)(F)F)cnc2N2CCC(F)(F)CC2)c1` [Example 152, 2-(4,4-difluoropiperidin-1-yl)-N-(3-(methylsulfonyl)phenyl)-5-(trifluoromethyl)nicotinamide], the IC50 falls from 7330 nM to 67 nM (110-fold). The second is the more potent here.

Compared with `CC(C)S(=O)(=O)c1cccc(NC(=O)c2cc(C(F)(F)F)cnc2N2CCCCCC2)c1` [Example 117, 2-(azepan-1-yl)-N-(3-isopropylsulfonylphenyl)-5-(trifluoromethyl)-pyridine-3-carboxamide], `NS(=O)(=O)c1cccc(NC(=O)c2cc(C(F)(F)F)cnc2N2CCCCCCC2)c1` [Example 88, 2-(azocan-1-yl)-N-(3-sulfamoylphenyl)-5-(trifluoromethyl)-pyridine-3-carboxamide] is 130-fold lower in IC50: 778 nM for the first, 6 nM for the second.

`Cc1cc(Cl)nc(N2CCCCCC2)c1C(=O)Nc1cccc(S(N)(=O)=O)c1` [Example 29, 2-(azepan-1-yl)-6-chloro-4-methyl-N-(3-sulfamoylphenyl)nicotinamide] and `Cc1c(F)c(Cl)nc(N2CCCCCC2)c1C(=O)Nc1cccc(S(N)(=O)=O)c1` [Example 3, 2-(azepan-1-yl)-6-chloro-5-fluoro-4-methyl-N-(3-sulfamoyl-phenyl)pyridine-3-carboxamide] are within 1.5-fold of each other in IC50: 10 nM for the first, 7.6 nM for the second.

Going from `Cc1nc(N2CCC(F)(F)CC2)c(C(=O)Nc2cccc(C#N)c2)c(C)c1Cl` [Example 20, 5-chloro-N-(3-cyanophenyl)-2-(4,4-difluoro-1-piperidyl)-4,6-dimethyl-pyridine-3-carboxamide] to `Cc1nc(N2CCC3(CC2)CC3)c(C(=O)Nc2cccc(C(N)=O)c2)c(C)c1Cl` [Example 13, 2-(6-azaspiro[2.5]-octan-6-yl)-N-(3-carbamoyl-phenyl)-5-chloro-4,6-dimethyl-pyridine-3-carboxamide], the IC50 falls from 74 nM to 13 nM (5.7-fold). The second is the more potent here.

Going from `NS(=O)(=O)c1cccc(NC(=O)c2cc(C3COC3)cnc2N2CCCC(F)(F)CC2)c1` [Example 160, 2-(4,4-difluoroazepan-1-yl)-5-(oxetan-3-yl)-N-(3-sulfamoylphenyl)nicotinamide] to `CS(=O)(=O)c1cccc(NC(=O)c2cc(Cl)cnc2N2CCCC(F)(F)CC2)c1` [Example 173, 5-chloro-2-(4,4-difluoroazepan-1-yl)-N-(3-(methylsulfonyl)phenyl)nicotinamide], the IC50 falls from 681 nM to 7.8 nM (87-fold). The second is the more potent here.

First: COc1ccc(C(=O)Nc2cccc(S(N)(=O)=O)c2)c(N2CCCCCC2)n1 [Example 91, 2-(azepan-1-yl)-6-methoxy-N-(3-sulfamoyl-phenyl)pyridine-3-carboxamide]
Second: NS(=O)(=O)c1cccc(NC(=O)c2c(Br)ccnc2N2CCCCCC2)c1 [Example 33, 2-(azepan-1-yl)-4-bromo-N-(3-sulfamoyl-phenyl)pyridine-3-carboxamide]
The IC50 of the first is 1.5-fold lower: 29 nM for the first, 44 nM for the second.

Compared with `Cc1cc(Cl)nc(N2CCCC(F)(F)CC2)c1C(=O)Nc1cccc(C(N)=O)c1` [Example 17, N-(3-carbamoyl-phenyl)-6-chloro-2-(4,4-difluoroazepan-1-yl)-4-methyl-pyridine-3-carboxamide], `NC(=O)c1cccc(NC(=O)c2ccc(Cl)nc2N2CCCC(F)(F)CC2)c1` [Example 14, N-(3-carbamoyl-phenyl)-6-chloro-2-(4,4-difluoroazepan-1-yl)pyridine-3-carboxamide] is 1.6-fold lower in IC50: 29 nM for the first, 18 nM for the second.

First: O=C(Nc1ccc2c(c1)S(=O)(=O)NC2)c1cc(C(F)(F)F)cnc1N1CCCCCC1 [Example 121, 2-(azepan-1-yl)-N-(1,1-dioxo-2,3-dihydro-1,2-benzothiazol-6-yl)-5-(trifluoromethyl)-pyridine-3-carboxamide]
Second: CC1(C)CCCN(c2ncc(C(F)(F)F)cc2C(=O)Nc2cccc(S(N)(=O)=O)c2)CC1 [Example 80, 2-(4,4-dimethylazepan-1-yl)-N-(3-sulfamoyl-phenyl)-5-(trifluoro-methyl)nicotinamide]
The IC50 of the first is 17-fold higher: 189 nM for the first, 11 nM for the second.

Going from `CS(=O)(=O)c1cccc(NC(=O)c2cc(C(F)(F)F)cnc2N2CCc3ccccc3C2)c1` [Example 98, 2-(3,4-dihydro-1H-isoquinolin-2-yl)-N-(3-methylsulfonylphenyl)-5-(trifluoromethyl)-pyridine-3-carboxamide] to `Cc1nc(N2CCCCC2)c(C(=O)Nc2cccc(S(C)(=O)=O)c2)c(C)c1Cl` [Example 12, 5-chloro-4,6-dimethyl-N-(3-methylsulfonyl-phenyl)-2-(1-piperidyl)pyridine-3-carboxamide], the IC50 falls from 93 nM to 54 nM (1.7-fold). The second is the more potent here.

Compared with `Cc1nc(N2CCC3(CC2)CC3)c(C(=O)Nc2cccc(S(N)(=O)=O)c2)c(C)c1Cl` [Example 76, 2-(6-azaspiro[2.5]-octan-6-yl)-5-chloro-4,6-dimethyl-N-(3-sulfamoylphenyl) pyridine-3-carboxamide], `Cc1c(Cl)nc(N2CCCCCC2)c(C(=O)Nc2cccc(S(N)(=O)=O)c2)c1C` [Example 174, 2-(azepan-1-yl)-6-chloro-4,5-dimethyl-N-(3-sulfamoylphenyl)-pyridine-3-carboxamide] is 2.7-fold higher in IC50: 2.2 nM for the first, 6 nM for the second. The first is the more potent here.
